Data on 16 compounds can be found in US20250353835A1, “N-TETRAZOLYL ARYL UREA-BASED DERIVATIVES, PREPARATION METHOD THEREFOR, AND USE THEREOF” (Hangzhou Yirui Pharmaceutical Technology Co., Ltd, priority 2022, published 2025).

For test [1], the target named is T1, human B1R (Homo sapiens, UniProt P46663).
T1 construct: host or cells: HEK293
T1 sequence (P46663 1-353): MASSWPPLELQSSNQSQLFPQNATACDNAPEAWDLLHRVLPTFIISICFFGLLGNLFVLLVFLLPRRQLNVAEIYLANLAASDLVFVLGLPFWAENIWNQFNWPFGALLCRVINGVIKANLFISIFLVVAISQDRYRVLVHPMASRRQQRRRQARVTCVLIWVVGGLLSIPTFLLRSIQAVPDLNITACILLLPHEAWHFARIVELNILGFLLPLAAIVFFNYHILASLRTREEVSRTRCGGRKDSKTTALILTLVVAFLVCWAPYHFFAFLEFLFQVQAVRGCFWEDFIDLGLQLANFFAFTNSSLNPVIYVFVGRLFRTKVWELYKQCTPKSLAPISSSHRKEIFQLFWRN
In words: FLIPR calcium ion flux assay, inhibitory activity against human B1R. It counts as cell-based. As to conditions: HEK293 cells stably expressing human B1R; agonist [Lys-des-Arg9]-Bradykinin 4.6 nM (EC80); FLIPR method. As for the experimental part:
The inhibitory activity of the compounds against human B1R and B2R channels was determined by calcium ion flux assay using fluorometric imaging plate reader (FLIPR method). See literatures of Lee, Chen et al. for the method. [Lee et al. 2008][Chen et al. 2011]
1. Cell culture: HEK293 recombinant cell lines (WuXi AppTec, Shanghai, China) stably expressing human B1R and B2R were cultured in DMEM (Invitrogen, Cat #11965) medium containing 10% calf serum (Excellbio, Cat #FSP500), 5 μg/ml Geneticin (Invitrogen, Cat #10131) and Penicillin/Streptomycin (Invitrogen, Cat #15140). The incubator conditions were 37° C. and ambient humidity containing 5% CO2.
2. Preparation of the cell assay plate: B1R and B2R cells were seeded in a 384-well assay plate (Greiner, Cat #781090) at a density of 20,000 cells per well (20 μl/well), and cultured overnight at 37° C. in an incubator with 5% CO2. The next day, Fluo-4 Direct™ Loading Buffer (containing 5 mM Probenicid) containing 2× (8 μM) Fluo-4 Direct (Invitrogen, Cat #F10471) was added to each of the wells. The cells were cultured at 37° C. for 50 min, and then culture for at the room temperature 10 min.
3. Preparation of the compound assay plate: The compound was dissolved in 100% DMSO to make a 30 mM stock solution and stored at −20° C. On the day of use, the stock solution of the compound was thawed at the room temperature. Each of the compounds was serially diluted at 1:5 in DMSO culture medium with a starting concentration of 30 μM for 9 concentration points on a 384-well plate. Each of compounds was diluted in duplicate for testing. [Des-Arg10]-HOE140 was used as a positive control compound, and diluted in the same manner with a starting concentration of 3 μM.
4. FLIPR assay: The cell assay plate was placed in a FLIPR instrument ([…]). The compounds in the compound assay plate were added to the corresponding wells on the cell assay plate (10 μL/well) using an automatic program. The calcium ion fluorescence signal was recorded to determine whether the compound may have agonist activity. After 10 minutes, a B1R agonist [Lys-des-Arg9]-Bradykinin2 (10 μL/well) with a final concentration of 4.6 nM (EC80) was added to each of the wells to stimulate the generation of intracellular calcium ion flux signals. The Ca^++-dependent fluorescence signal was continuously monitored at a wavelength of 538 nm to analyze the inhibitory activity of the compound.
5. Data analysis: The data was collected and analyzed by a FLIPR program. The inhibitory (or agonist) activity of the compound at each concentration was evaluated by the fluorescence peak. The IC50 values of the compounds were calculated using EXCEL and PRISM programs.

In test [2] the test system is rat model of diabetic retinopathy. The test is described as follows: Rat model of diabetic retinopathy (STZ). The format is in vivo, Wistar rats. As to conditions: for retinal leukocyte stasis, Leukocyte count: Concanavalin A/FITC, 14 days after intravitreal injection, compounds 0.25%, dexamethasone 0.1%; for number of leukocyte stasis in the retina (fluorescent staining, FIG. 8; in words) / retinal vascular penetration in rats (fluorescent staining, FIG. 6; in words): intraocular injection, versus model group. The protocol:
3.1 Laboratory animals: SPF-grade male Wistar rats, weighed 180-220 g.
3.3 Animal modeling and grouping: After one week of adaptive feeding, 134 male Wistar rats (weighed 220-260 g) were administered 65 mg/kg of STZ by one-time intraperitoneal injection to prepare a rat model of type I diabetic. The rats were fasting but water was allowable overnight for 15 h. The formulated STZ solution was intraperitoneally injected according to body weight. After 1 h, the diet was resumed and blood glucose was measured at 72 h. The successfully modeled diabetic rats (120 rats) were selected for continued feeding, and randomly divided into the following 6 groups according to blood glucose (20 rats per group), plus a group of normal rats with no STZ injected as a negative control group.
3.4 Administration: The rats continued to be fed until blood glucose was measured once before administration. After blood glucose reached the standard, drugs were intravitreally injected, and indexs were subsequently tested after 14 days. Blood glucose was measured once before sampling.
3.5 Evans blue staining method (7 groups, 6 rats per group): Evans blue was intravenously injected. 2 hours later, normal saline was perfused into the left ventricle. The retina was taken to compare between the stained area and the unstained area to detect retinal vascular permeability.
3.6 Retinal leukocyte stasis detection method (7 groups, 6 rats per group): PBS was perfused into the left ventricle for 1 min to remove red blood cells and other substances. Concanavalin A (FITC (Sigma, C7642) was perfused (20 μg/ml in PBS, 5 mg/kg) to mark adherent leukocytes. 4% PFA was perfused for 4 min for fixation. 1% Albumin (Sigma, A6414) (in PBS) was perfused for 1 min, and then PBS was perfused for 2 min. The retina was taken for retinal wholemount. Thereafter, the stasis of leukocytes on the vascular endothelium was observed under a fluorescence microscope. […]

Consider `COc1ccc(-c2ccc(NC(=O)N(C)[C@H]3CC[C@H](C(C)(C)C)CC3)cc2-c2nn[nH]n2)cc1OC` [Compound 65, 1-((trans)-4-(tert-butyl)cyclohexyl)-3-(3′,4′-dimethoxy-2-(2H-tetrazol-5-yl)-[1,1′-biphenyl]-4-yl)-1-methylurea], for which the IC50 (commonly the concentration that gives 50% inhibition) in test [1] was 43.5 nM. In addition, in test [2], the “retinal leukocyte stasis, Leukocyte count” value is on record as 5.14 ± 1.20; the “number of leukocyte stasis in the retina (fluorescent staining, FIG. 8; in words)” value is “significantly reduced”; the “retinal vascular penetration in rats (fluorescent staining, FIG. 6; in words)” value is reported as “significantly reduced”.

With `COc1ccc(-c2c(F)cc(NC(=O)N3CCC(C(C)(C)C)CC3)cc2-c2nn[nH]n2)cc1OC` [Compound 11, 4-(tert-butyl)-N-(2-fluoro-3′,4′-dimethoxy-6-(2H-tetrazol-5-yl)-[1,1′-biphenyl]-4-yl)piperidine-1-carboxamide], the IC50 in test [1] turned out to be 14.6 nM. Further, in test [2], the “retinal leukocyte stasis, Leukocyte count” value is given as 7.20 ± 8.44; the “number of leukocyte stasis in the retina (fluorescent staining, FIG. 8; in words)” value was “significantly reduced”; the “retinal vascular penetration in rats (fluorescent staining, FIG. 6; in words)” value is “significantly reduced”. With `COc1ccc(-c2ncc(NC(=O)N3CCC(C(C)(C)C)CC3)cc2-c2nn[nH]n2)cc1OC` [Compound 35, 4-(tert-butyl)-N-(6-(3,4-dimethoxyphenyl)-5-(2H-tetrazol-5-yl)pyrid-3-yl)piperidine-1-carboxamide], in test [1], the IC50 worked out at 92.9 nM. Still for that read-out and setting: the result for `CC(C)(C)C1CCN(C(=O)Nc2ccc(-c3ccc(C(F)F)nc3)c(-c3nn[nH]n3)c2)CC1` [Compound 42, 4-(tert-butyl)-N-(4-(6-(difluoromethyl)pyrid-3-yl)-3-(2H-tetrazol-5-yl)phenyl)piperidine-1-carboxamide] reads 109 nM.

On to `COc1ccc(Oc2ccc(NC(=O)N[C@H]3CC[C@H](C)CC3)cc2-c2nn[nH]n2)cc1OC` [Compound 64, 1-(4-(3,4-dimethoxyphenoxy)-3-(2H-tetrazol-5-yl)phenyl)-3-((trans)-4-methylcyclohexyl)urea], for which, in test [1], the IC50 turned out to be 9900 nM. Same read-out and setting: with `CCOc1ccc(-c2ccc(NC(=O)N3CCC(C)CC3)cc2-c2nn[nH]n2)cn1` [Compound 5, N-(4-(6-ethoxypyrid-3-yl)-3-(2H-tetrazol-5-yl)phenyl)-4-methylpiperidine-1-carboxamide] the figure was 162 nM. Consider `Cn1ncc2cc(-c3c(F)cc(NC(=O)N4CCC(C(C)(C)C)CC4)cc3-c3nn[nH]n3)ccc21` [Compound 32, 4-(tert-butyl)-N-(3-fluoro-4-(1-methyl-1H-indazol-5-yl)-5-(2H-tetrazol-5-yl)phenyl)piperidine-1-carboxamide], for which the IC50 in test [1] amounted to 14.2 nM. Still for that read-out and setting: the result for `Cc1ccc(NC(=O)c2c(F)cc(NC(=O)N3CCC(C(C)(C)C)CC3)cc2-c2nn[nH]n2)nc1` [Compound 54, 4-(tert-butyl)-N-(3-fluoro-4-((5-methylpyridin-2-yl)aminoformyl)-5-(2H-tetrazol-5-yl)phenyl)piperidine-1-carboxamide] reads 67.9 nM; that for `Cc1ccc(NC(=O)c2ccc(NC(=O)N3CCC(C(C)(C)C)CC3)cc2-c2nn[nH]n2)nc1` [Compound 47, 4-(tert-butyl)-N-(4-((5-methylpyridin-2-yl)aminoformyl)-3-(2H-tetrazol-5-yl)phenyl)piperidine-1-carboxamide], 93.9 nM. With `COc1ccc(-c2ccc(NC(=O)N3CCC(C(C)(C)C)CC3)cc2-c2nn[nH]n2)cc1Cl` [Compound 14, 4-(tert-butyl)-N-(3′-chloro-4′-methoxy-2-(2H-tetrazol-5-yl)-[1,1′-biphenyl]-4-yl)piperidine-1-carboxamide], the IC50 in test [1] was 23.5 nM. Still for that read-out and setting: the result for `CC(C)Oc1ccc(-c2ccc(NC(=O)N3CCC(C(C)(C)C)CC3)cc2-c2nn[nH]n2)cn1` [Compound 49, 4-(tert-butyl)-N-(4-(6-isopropoxypyrid-3-yl)-3-(2H-tetrazol-5-yl)phenyl)piperidine-1-carboxamide] reads 9.6 nM; that for `CCOC(=O)c1ccc(NC(=O)N2CCC(C)CC2)cc1-c1nn[nH]n1` [Compound 24, ethyl 4-(4-methylpiperidine-1-formamido)-2-(2H-tetrazol-5-yl)benzoate], 35.7 nM. Consider `COc1cncc(-c2c(F)cc(NC(=O)N3CCC(C(C)(C)C)CC3)cc2-c2nn[nH]n2)c1` [Compound 50, 4-(tert-butyl)-N-(3-fluoro-4-(5-methoxypyrid-3-yl)-5-(2H-tetrazol-5-yl)phenyl) piperidine-1-carboxamide], for which the IC50 in test [1] came to 54.8 nM. With `CCOc1ccc(-c2ncc(NC(=O)N3CCC(C(C)(C)C)CC3)cc2-c2nn[nH]n2)cn1` [Compound 7, 4-(tert-butyl)-N-(6′-ethoxy-3-(2H-tetrazol-5-yl)-[2,3′-bipyridyl]-5-yl)piperidine-1-carboxamide], the concentration for half-maximal inhibition (IC50) in test [1] turned out to be 57.8 nM. The same measure, in the same setting: with `CCOc1ccc(-c2ccc(NC(=O)N3CCC(C(C)(C)C)CC3)cc2-c2nn[nH]n2)cn1` [Compound 6, 4-(tert-butyl)-N-(4-(6-ethoxypyrid-3-yl)-3-(2H-tetrazol-5-yl)phenyl)piperidine-1-carboxamide] the figure was 23.6 nM; with `CC(C)(C)[C@H]1CC[C@@H](NC(=O)Nc2ccc(-c3ccc4c(c3)OCO4)c(-c3nn[nH]n3)c2)CC1` [Compound 70, 1-(4-(benzo[d][1,3]dioxolan-5-yl)-3-(2H-tetrazol-5-yl)phenyl)-3-((cis)-4-(tert-butyl)cyclohexyl)urea], 303 nM.
